pIC50: −log10 of the molar value. Read-outs that look alike come from different tables or passages of the source.

Series [1] addresses T1, HDAC6 (Homo sapiens, UniProt Q9UBN7).
T1 construct: purchased Biovision Company
T1 sequence (Q9UBN7 1-1215): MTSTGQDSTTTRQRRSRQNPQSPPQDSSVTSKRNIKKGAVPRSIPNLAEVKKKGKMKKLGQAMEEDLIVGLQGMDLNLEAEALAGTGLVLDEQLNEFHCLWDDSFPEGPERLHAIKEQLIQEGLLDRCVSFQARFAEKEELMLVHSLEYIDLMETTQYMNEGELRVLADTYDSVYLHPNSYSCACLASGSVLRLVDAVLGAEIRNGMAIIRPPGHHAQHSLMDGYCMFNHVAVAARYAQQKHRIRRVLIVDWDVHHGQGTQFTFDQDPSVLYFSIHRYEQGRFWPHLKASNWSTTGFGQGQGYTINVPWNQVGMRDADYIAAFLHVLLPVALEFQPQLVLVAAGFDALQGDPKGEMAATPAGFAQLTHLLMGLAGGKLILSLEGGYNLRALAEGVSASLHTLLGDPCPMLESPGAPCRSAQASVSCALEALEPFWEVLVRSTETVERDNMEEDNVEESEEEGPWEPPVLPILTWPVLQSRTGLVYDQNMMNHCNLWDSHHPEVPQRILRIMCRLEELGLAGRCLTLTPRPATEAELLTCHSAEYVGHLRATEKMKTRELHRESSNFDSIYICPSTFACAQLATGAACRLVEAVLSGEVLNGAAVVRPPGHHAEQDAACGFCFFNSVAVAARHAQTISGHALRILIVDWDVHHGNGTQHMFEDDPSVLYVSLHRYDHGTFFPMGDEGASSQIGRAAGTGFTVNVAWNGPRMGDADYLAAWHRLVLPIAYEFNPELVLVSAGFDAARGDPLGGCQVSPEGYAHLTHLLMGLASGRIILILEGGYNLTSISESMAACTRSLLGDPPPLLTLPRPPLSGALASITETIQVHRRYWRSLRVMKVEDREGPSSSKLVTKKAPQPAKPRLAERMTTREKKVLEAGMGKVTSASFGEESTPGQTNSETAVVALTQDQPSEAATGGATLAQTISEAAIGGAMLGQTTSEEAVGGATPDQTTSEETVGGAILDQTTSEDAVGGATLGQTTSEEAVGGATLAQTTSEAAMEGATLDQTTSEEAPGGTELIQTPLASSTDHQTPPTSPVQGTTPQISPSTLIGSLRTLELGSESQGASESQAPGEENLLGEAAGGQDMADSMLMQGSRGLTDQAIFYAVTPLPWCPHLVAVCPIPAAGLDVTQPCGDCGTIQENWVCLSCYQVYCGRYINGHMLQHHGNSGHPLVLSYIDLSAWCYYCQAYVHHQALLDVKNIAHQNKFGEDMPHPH
Description: HDAC6 inhibitor screening kit (Biovision), in vitro inhibitory activity. It counts as biochemical. On the procedure: (§1) The in vitro inhibitory activity of histone deacetylase of the compound was determined according to the instructions of HDAC1 and HDAC6 inhibitor screening kit (Biovision Company).

In series [2] the target is T2, HDAC1 (Homo sapiens, UniProt Q13547).
T2 construct: purchased Biovision Company
Description: HDAC1 inhibitor screening kit (Biovision), in vitro inhibitory activity. Format: biochemical. On the procedure:
as §1

Series [3] has as its system glioma cell line U-87MG. Description: In vitro anti-proliferative activity (CCK8), U-87MG. Format: cell-based. Particulars: Homo sapiens, read-out: U-87MG (Glioma) Inh % in 10 μM.
Series [4] deals with myeloma cell line RPMI 8226. Description: In vitro anti-proliferative activity (CCK8), RPMI 8226. It counts as cell-based. The following applies: Homo sapiens, 48 hours, class symbol, read-out: RPMI 8226 (Myeloma) Inh % in 10 μM. On the procedure:
(§2) The specific results are shown in the table (unit: […] Test method: The tumor cells in the logarithmic growth phase with good growth status were inoculated into 96-well plates at 4×10^3 per well, and 8 duplicate wells were set up in each group. The cells were cultured in a cell incubator, after the cells adhered to the wall, […]. […] The experiment was repeated 3 times, and the average of the experimental results was taken as the final experimental result, and the inhibition rate was calculated.

In series [5] the test system is human liver cancer cell line HepG2. Description: In vitro anti-proliferative activity (CCK8), HepG2. It counts as cell-based. The following applies: read-out: Hep G2 (Liver cancer) Inh % in 10 μM. The procedure:
as §2

Series [6] concerns human lung cancer cell line A549. Description: In vitro anti-proliferative activity (CCK8), A549. Format: cell-based. The following applies: read-out: A549 (Lung cancer) Inh % in 10 μM. On the procedure:
as §2

The subject of series [7] is MRC-5 human normal embryo lung fibroblast. Description: In vitro anti-proliferative activity (CCK8), MRC-5 normal cells. Particulars: read-out: MRC-5 (Normal cell line) Inh % in 10 μM. It counts as cell-based.
In series [8] the test system is mixed cells and primary neurons in rat cortex. Description: Protective effect on HCA-induced neuronal cell damage. The following applies: HCA 5 mmol/L; test concentration 0.1, 1.0 and 10.0 μM; compared with Tubastatin A at the same dose. It counts as cell-based.
Series [9] addresses T3, hERG potassium channels (Homo sapiens, UniProt Q12809).
T3 construct: expressed in transfected cells
Description: hERG potassium channel whole-cell patch clamp. It counts as cell-based. The following applies: hERG-HEK293 cells, IKr current. The source says: Whole-cell patch clamp technique was used to record the changes of hERG current (IKr) after different concentrations of compounds acted on HEK293 cells (hERG-HEK293 steady-state cells) expressing hERG potassium channels to study the half inhibitory concentration (IC50) of the above compounds on IKr.

The nature of series [10]: Maximum tolerance dose by intragastric administration. Particulars: ICR, mouse, in vivo, po; mice, single intragastric administration, 14 days observation; read-out: maximum tolerated dose. The procedure: 40 ICR mice, half male and half […], weighing 18 to 20 g, were divided into 4 groups with 10 animals in each group. After 6 hours of fasting, the test samples in each group were taken with sterilized plastic syringe and orally gavaged at a volume of 0.3 mL/10 g. The general physical signs of animals and the death of animals were recorded at 1, 2 and 4 hours after administration. […] The dead animals were dissected to observe whether there were any visible pathological changes in the organs of the animals, and pathological examinations were carried out on suspicious tissues and organs.

Series [11] deals with myeloma cell line RPMI 8226. Description: In vitro anti-proliferative activity (CCK8), RPMI 8226. The following applies: Homo sapiens, RPMI-8226, 48 h, read-out: RPMI 8226 (Myeloma) Inh % in 10 μM. It counts as cell-based.
[12] abbreviates: 10 μM, 48 hours, CCK8, class symbol.
The mark [13] stands for this setting: HepG2, 10 μM, 48 hours, CCK8, class symbol.
[14] abbreviates: A549, 10 μM, 48 hours, CCK8, class symbol.
Setting [15] is: MRC5, 10 μM, 48 hours, CCK8, class symbol.

T3 sequence (Q12809 whole entry): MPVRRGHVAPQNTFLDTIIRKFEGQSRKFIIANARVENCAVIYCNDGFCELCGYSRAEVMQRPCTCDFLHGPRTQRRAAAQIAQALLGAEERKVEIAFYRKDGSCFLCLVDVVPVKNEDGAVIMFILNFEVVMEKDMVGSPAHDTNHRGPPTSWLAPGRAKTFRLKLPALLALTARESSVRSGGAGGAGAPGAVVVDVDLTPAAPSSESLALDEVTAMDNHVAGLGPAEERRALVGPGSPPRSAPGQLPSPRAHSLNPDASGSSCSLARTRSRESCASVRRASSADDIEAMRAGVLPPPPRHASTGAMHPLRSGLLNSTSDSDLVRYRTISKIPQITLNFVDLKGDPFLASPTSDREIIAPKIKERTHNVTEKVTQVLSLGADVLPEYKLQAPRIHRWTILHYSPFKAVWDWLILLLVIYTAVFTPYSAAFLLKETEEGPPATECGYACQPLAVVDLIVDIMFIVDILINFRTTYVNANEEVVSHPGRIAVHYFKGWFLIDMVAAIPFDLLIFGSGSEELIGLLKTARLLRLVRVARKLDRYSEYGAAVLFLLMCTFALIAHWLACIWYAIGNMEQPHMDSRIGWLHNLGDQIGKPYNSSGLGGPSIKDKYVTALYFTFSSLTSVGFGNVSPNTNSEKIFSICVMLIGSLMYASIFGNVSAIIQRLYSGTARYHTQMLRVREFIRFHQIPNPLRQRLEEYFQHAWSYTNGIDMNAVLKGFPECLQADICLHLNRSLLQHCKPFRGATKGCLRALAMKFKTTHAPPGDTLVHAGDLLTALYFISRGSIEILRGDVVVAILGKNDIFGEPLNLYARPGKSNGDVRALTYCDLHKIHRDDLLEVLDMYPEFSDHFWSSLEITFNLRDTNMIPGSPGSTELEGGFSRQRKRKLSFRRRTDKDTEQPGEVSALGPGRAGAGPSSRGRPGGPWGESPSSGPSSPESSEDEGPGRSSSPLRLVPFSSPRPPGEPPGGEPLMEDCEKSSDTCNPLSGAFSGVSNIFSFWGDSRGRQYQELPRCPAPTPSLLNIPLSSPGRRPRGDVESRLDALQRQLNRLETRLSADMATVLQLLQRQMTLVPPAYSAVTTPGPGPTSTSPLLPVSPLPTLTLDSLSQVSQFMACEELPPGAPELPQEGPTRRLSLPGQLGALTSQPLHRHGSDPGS
T2 sequence (Q13547 whole entry): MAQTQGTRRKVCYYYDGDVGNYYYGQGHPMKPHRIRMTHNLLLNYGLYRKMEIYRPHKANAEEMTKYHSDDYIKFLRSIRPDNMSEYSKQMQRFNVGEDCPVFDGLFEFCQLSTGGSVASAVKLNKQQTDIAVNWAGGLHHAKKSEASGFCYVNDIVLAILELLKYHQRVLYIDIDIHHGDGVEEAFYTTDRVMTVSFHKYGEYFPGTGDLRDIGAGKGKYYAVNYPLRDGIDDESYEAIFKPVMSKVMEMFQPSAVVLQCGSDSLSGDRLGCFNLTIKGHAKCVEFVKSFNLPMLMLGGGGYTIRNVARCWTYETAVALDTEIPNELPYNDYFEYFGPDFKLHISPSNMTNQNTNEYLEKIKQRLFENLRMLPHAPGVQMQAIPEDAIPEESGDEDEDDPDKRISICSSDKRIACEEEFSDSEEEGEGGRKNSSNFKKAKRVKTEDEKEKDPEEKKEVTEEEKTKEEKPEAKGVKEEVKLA

On to `O=C(NO)c1ccc(CN2CCCCc3ccc(Cl)cc32)cc1` [Compound T-2, 4-((8-chloro-2,3,4,5-tetrahydro-1H-benzo[b]azepin-1-yl)methyl)-N-hydroxybenzamide], for which the IC50 in [1] is 14 nM; in series [2] it was 406 nM. Besides, the inhibition at 10 µM in series [3] (setting [12]) is 80 to 90%; in series [4], 90 to 100%; in series [5] (setting [13]) it was 90 to 100%; in series [6] (setting [14]), 70 to 80%; in series [7] (setting [15]) it was under 50%. Besides, the “protective effect against HCA-induced neuronal excitotoxicity (cell survival rate)” value (“protective effect” below) in [8] is “stronger than that of the HDAC6 inhibitor compound Tubastatin A”. Besides, the pIC50 in series [9] is under 5.00. In addition, the MTD at 14 days in series [10] is over 1000 mg/kg.

Take `COc1ccc2c(c1)CCCCN2Cc1ccc(C(=O)NO)cc1` [Compound T-5, 4-((7-methoxy-2,3,4,5-tetrahydro-1H-benzo[b]azepin-1-yl)methyl)-N-hydroxybenzamide]: the IC50 in series [1] worked out at 5.6 nM; in [2], 257 nM. In addition, the inhibition at 10 µM in series [3] (setting [12]) is 80 to 90%; in series [4] it was 90 to 100%; in series [5] (setting [13]) it was 90 to 100%; in series [6] (setting [14]) it was 70 to 80%; in series [7] (setting [15]), under 50%. Moreover, the “protective effect” value in series [8] is “stronger than that of the HDAC6 inhibitor compound Tubastatin A”. For the same compound, in [9], the pIC50 was under 5.00. Further, the MTD at 14 days in series [10] is over 1000 mg/kg.

`O=C(NO)c1ccc(CN2CCCOc3ccccc32)cc1` [Compound T-15, 4-((3,4-dihydrobenzo[b][1,4]oxazepin-5(2H)-yl)methyl)-N-hydroxybenzamide]: the IC50 is 6.2 nM in series [1] and 367 nM in series [2]. For the same compound, the inhibition at 10 µM in series [3] (setting [12]) was 80 to 90%; in series [4] it was 90 to 100%; in [5] (setting [13]), 90 to 100%; in series [6] (setting [14]), 50 to 70%; in series [7] (setting [15]), under 50%. In addition, the “protective effect” value in series [8] was “stronger than that of the HDAC6 inhibitor compound Tubastatin A”. This compound had a pIC50 in series [9] of under 5.00. Moreover, the MTD at 14 days in [10] is over 1000 mg/kg.

`O=C(NO)c1ccc(CN2CCCC(O)c3ccccc32)cc1` (centres unmarked) [Compound T-19, 4-((5-hydroxy-2,3,4,5-tetrahydro-1H-benzo[b]azepin-1-yl)methyl)-N-hydroxybenzamide]: the IC50 stood at 6.4 nM in [1] and 442 nM in series [2]. Also, the inhibition at 10 µM in series [3] (setting [12]) was 90 to 100%; in [4] it was 90 to 100%; in series [5] (setting [13]), 90 to 100%; in series [6] (setting [14]) it was 50 to 70%; in [7] (setting [15]) it was under 50%. The “protective effect” value in [8] is reported as “stronger than that of the HDAC6 inhibitor compound Tubastatin A”. The same compound showed a pIC50 in [9] of under 5.00. Also, the MTD at 14 days in series [10] is over 1000 mg/kg.

As to `CN(C)C1CCCN(Cc2ccc(C(=O)NO)cc2)c2ccccc21` (centres unmarked) [Compound T-21, 4-((5-dimethylamino-2,3,4,5-tetrahydro-1H-benzo[b]azepin-1-yl)methyl)-N-hydroxybenzamide], the inhibition at 10 µM in [3] (setting [12]) is 80 to 90%; in [4], 90 to 100%; in series [5] (setting [13]), 90 to 100%; in series [6] (setting [14]), 70 to 80%; in series [7] (setting [15]) it was under 50%. Also, the “protective effect” value in series [8] is reported as “stronger than that of the HDAC6 inhibitor compound Tubastatin A”. In addition, the pIC50 in [9] was under 5.00. Besides, the MTD at 14 days in [10] is over 1000 mg/kg.

In the case of `O=C(NO)c1ccc(CN2CCCCc3ccccc32)cc1F` [Compound T-24, 4-((2,3,4,5-tetrahydro-1H-benzo[b]azepin-1-yl)methyl)-2-fluoro-N-hydroxybenzamide], the figures for the IC50 in series [1] and in series [2] were 12 nM and over 500 nM, respectively.

`COc1ccc2c(c1)CCN(Cc1ccc(C(=O)NO)cc1)CC2` [Compound T-25, 4-((7-methoxy-1,2,4,5-tetrahydro-3H-benzo[d]azepin-3-yl)methyl)-N-hydroxybenzamide]: the IC50 was 17 nM in [1] and over 500 nM in series [2].

Take `COc1cccc2c1CCN(Cc1ccc(C(=O)NO)cc1)CC2` [Compound T-26, 4-((6-methoxy-1,2,4,5-tetrahydro-3H-benzo[d]azepin-3-yl)methyl)-N-hydroxybenzamide]: the IC50 was 97 nM in series [1] and over 500 nM in series [2].

With `COc1ccc(Br)c2c1CCN(Cc1ccc(C(=O)NO)cc1)CC2` [Compound T-27, 4-((6-bromo-9-methoxy-1,2,4,5-tetrahydro-3H-benzo[d]azepin-3-yl)methyl)-N-hydroxybenzamide], the IC50 in series [1] is 29 nM; in series [2], 431 nM.

For `COc1ccc(C2CC2)c2c1CCN(Cc1ccc(C(=O)NO)cc1)CC2` [Compound T-28, 4-((6-cyclopropyl-9-methoxy-1,2,4,5-tetrahydro-3H-benzo[d]azepin-3-yl)methyl)-N-hydroxybenzamide], the IC50 in series [1] is 22 nM; in series [2], over 500 nM. Besides, the inhibition at 10 µM in series [3] (setting [12]) is 80 to 90%; in series [4], 90 to 100%; in [5] (setting [13]), 90 to 100%; in series [6] (setting [14]), 50 to 70%; in [7] (setting [15]), under 50%. The “protective effect” value in series [8] is listed as “stronger than that of the HDAC6 inhibitor compound Tubastatin A”. The compound also showed a pIC50 in [9] of under 5.00. For the same compound, the MTD at 14 days in series [10] was over 1000 mg/kg.

With `O=C(CCCCCCNC(=O)c1cnc(N(c2ccccc2)c2ccccc2)nc1)NO` [Rocilinostat (ACY-1215), Rocilinostat, reference compound], the inhibition at 10 µM in [3] (48 h) was found to be 42.1%; in series [5] (HepG2, 48 h), 93.4%; in series [6] (A549, 48 h), 51.6%; in series [7] (MRC5, 48 h), 46.7%; in series [11] it was 99.3%.

The values are drawn from US20230159463A1, “BENZONITRIC HETEROCYCLIC COMPOUND, PREPARATION METHOD THEREFOR AND USE THEREOF” (SHANGHAI ZHONGZE THERAPEUTICS, CO. LTD., priority 2020, published 2023).
